Experimental data reported in paper PMC9527238, “Glutamate and GABAA receptor crosstalk mediates homeostatic regulation of neuronal excitation in the mammalian brain” (Signal Transduction and Targeted Therapy, 2022).

Key:
Assay type in all cases: cell-based
[1] = molecular target: T1, GABAAR-mediated currents, β2E181G KI mice (Mus musculus, UniProt P63137, E206G); test: Whole-cell recording of CA1 neurons, hippocampal slices of homozygous β2E181G KI mice; conditions: L-Glu 50 µM; KI slices
T1 construct: from tissue; host or cells: acute hippocampal slices of homozygous β2E181G knock-in mice (C57BL/6J), CA1 neurons
T1 sequence (P63137 26-512 E206G): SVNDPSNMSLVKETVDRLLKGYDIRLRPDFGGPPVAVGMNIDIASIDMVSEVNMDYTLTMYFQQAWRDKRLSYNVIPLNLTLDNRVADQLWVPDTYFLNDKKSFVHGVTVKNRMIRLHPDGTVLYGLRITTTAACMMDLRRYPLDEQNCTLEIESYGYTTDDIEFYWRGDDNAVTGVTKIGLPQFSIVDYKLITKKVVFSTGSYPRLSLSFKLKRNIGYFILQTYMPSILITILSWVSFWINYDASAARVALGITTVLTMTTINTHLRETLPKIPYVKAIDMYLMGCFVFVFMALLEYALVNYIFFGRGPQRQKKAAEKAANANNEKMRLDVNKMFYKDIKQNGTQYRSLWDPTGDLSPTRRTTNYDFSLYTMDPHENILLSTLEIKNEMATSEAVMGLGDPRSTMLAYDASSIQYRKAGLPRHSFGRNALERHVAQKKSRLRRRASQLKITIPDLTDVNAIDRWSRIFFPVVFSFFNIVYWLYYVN
Experimental: We next determined if glutamate-mediated allosteric potentiation of GABAAR function was impaired in hippocampal slices acutely prepared from postnatal 90-day-old KI mice. Whole-cell recordings of CA1 neurons were performed under voltage clamp configuration at a holding potential of −60 mV.
Mice were deeply anesthetized with urethane (1.5 g/kg, i.p.) and transcardially perfused with ice cold sucrose hypertonic cutting solution (in mM: KCl 3.0, NaH2PO4.H2O 1.25, NaHCO3 26, Na-vitamin C 0.4, Na-lactate 2.0, Na-pyruvate 2.0, D-glucose 10.0, Sucrose 220, CaCl2 0.1, MgCl2 2, MgSO4 4.0, pH 7.4, 290–300 mOsm/l) prior to decapitation as described previously.[47] After decapitation, the brain was rapidly removed and transferred to the ice cold cutting solution bubbled with 95% O2 and 5% CO2, and acute coronal brain slices (400 μm) were prepared on a Leica vibratome (VT1200S, Germany). All brain slices were placed into a standard artificial cerebral spinal fluid (ACSF) (in mM: NaCl 124, KCl 2.8, NaH2PO4.H2O 1.25, NaHCO3 26, Na-vitamin C 0.4, Na-lactate 2.0, Na-pyruvate 2.0, D-glucose 10.0, CaCl2 2, MgSO4 1.2, pH 7.4, 290–300 mOsm/l) incubated at 35 °C for 2 h prior to recording. Field excitatory postsynaptic potential (fEPSP) recordings were performed under current-clamp mode using HEKA EPC10 patch-clamp amplifier (HEKA Electronic, Lambrecht/Pfalz, Germany). […]

α1 β2^E181G γ2 GABAAR = molecular target: T2, α1 β2^E181G γ2 GABAAR (Rattus norvegicus, UniProt P62813+P63138, E206G); test: Patch clamp, HEK293, mutant GABAAR; conditions: normalized to wild-type α1β2γ2; for Relative potentiation: glutamate 100 μM co-applied with GABA 1 μM
T2 construct: expressed in transfected cells; host or cells: HEK293
T2 sequence (P62813 28-455): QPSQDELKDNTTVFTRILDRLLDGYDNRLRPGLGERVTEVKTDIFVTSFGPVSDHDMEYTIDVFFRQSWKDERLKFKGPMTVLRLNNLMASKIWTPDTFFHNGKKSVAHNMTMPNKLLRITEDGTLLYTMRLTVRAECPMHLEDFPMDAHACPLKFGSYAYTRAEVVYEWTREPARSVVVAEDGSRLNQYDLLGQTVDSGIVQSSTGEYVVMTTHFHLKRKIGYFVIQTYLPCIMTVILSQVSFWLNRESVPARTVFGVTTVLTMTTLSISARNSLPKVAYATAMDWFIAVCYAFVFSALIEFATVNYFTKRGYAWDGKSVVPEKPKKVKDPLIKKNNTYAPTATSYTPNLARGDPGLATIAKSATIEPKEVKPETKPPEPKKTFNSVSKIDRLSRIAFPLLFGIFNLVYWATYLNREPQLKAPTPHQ
T2 sequence (P63138 26-474 E206G): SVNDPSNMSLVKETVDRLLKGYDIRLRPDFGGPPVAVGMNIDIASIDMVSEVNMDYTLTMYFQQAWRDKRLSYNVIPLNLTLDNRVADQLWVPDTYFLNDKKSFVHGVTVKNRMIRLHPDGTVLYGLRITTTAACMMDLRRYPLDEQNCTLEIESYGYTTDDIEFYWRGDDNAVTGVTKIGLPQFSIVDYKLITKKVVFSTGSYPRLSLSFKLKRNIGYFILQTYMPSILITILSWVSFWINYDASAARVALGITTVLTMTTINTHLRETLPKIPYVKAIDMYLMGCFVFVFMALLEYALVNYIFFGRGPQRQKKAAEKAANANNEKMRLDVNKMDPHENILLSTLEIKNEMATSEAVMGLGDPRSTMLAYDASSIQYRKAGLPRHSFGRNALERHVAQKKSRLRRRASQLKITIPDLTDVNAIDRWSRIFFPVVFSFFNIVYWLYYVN
T2 sequence (P18508 39-466 partner): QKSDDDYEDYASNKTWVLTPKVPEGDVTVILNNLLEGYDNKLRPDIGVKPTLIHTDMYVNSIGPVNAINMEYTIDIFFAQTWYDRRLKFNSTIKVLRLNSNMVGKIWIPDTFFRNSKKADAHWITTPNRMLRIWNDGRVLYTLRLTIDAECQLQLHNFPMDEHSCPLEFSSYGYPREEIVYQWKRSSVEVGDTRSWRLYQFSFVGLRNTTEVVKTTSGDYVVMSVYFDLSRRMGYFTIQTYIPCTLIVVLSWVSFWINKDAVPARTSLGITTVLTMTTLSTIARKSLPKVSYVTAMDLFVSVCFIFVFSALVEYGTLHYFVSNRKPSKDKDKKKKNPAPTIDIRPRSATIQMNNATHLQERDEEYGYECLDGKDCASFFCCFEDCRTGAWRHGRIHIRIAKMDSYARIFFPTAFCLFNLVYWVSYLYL
Source text: (§1) The subunits are color-coded individually. The boxed regions are further enlarged in the middle panels, highlighting the predicted glutamate binding pocket in the α+ and β− interface, just below the loop C. […] Relative potentiation was obtained by normalizing potentiation observed in the mutated receptor to that in the respective wild-type receptor.
(§2) To positively confirm one of these two putative binding sites involved in glutamate binding, we performed a systemic mutational analysis of critical amino acids around these two sites followed by electrophysiological characterizations of their impacts on glutamate potentiation in HEK293 cells expressing wild-type or mutated α1β2γ2 GABAARs (Table 1).
(§3) HEK293 cells were cultured in DMEM (Invitrogen) supplemented with 10% fetal bovine serum. Cells were grown to 40–60% confluence and transiently transfected using Lipofectamine 2000 (Invitrogen) with 1:0.5–1 plasmid/lipid ratio. Cells were transfected with a pBK-CMV expression vector containing a rat recombinant GABAAR α, β or γ subunits. Co-transections were done with a plasmid ratio of 1:1 αβ and 2:2:1 for αβγ subunit combinations, respectively. pcDNA3.1-GFP was also co-transfected along with GABAAR subunits as a transfected marker in order to facilitate the visualization of the transfected cells during electrophysiological experiments. Cells were re-plated on glass coverslips after 15–20 h transfection and were cultured for an additional 15–24 h before whole-cell patch-clamp recordings.
(§4) The site-directed mutagenesis of α, β or γ subunits were performed by using the QuikChange method (Stratagene). […] Wild-type or mutant subunits were transfected in HEK293 cells and subjected to electrophysiology examinations.
(§5) Whole-cell patch-clamp recordings were performed under voltage-clamp mode using an Axopatch 200B or 1D patch-clamp amplifier (Molecular Devices) on HEK293 cells and cultured neurons. Whole-cell currents were recorded at a holding potential of −60 mV, and signals were filtered at 2 kHz, digitized at 10 kHz (Digidata 1322 A). Recording pipettes (3–5 MΩ) were filled with the intracellular solution that contained (mM): CsCl 140, HEPES 10, Mg-ATP 4, QX-314 5, pH 7.20; osmolarity, 290–295 mOsm. BAPTA (10 mM) was added in the intracellular solution. The coverslips were continuously superfused with the extracellular solution containing (mM): NaCl 140, KCl 5.4, HEPES 10, MgCl2 1.0, CaCl2 1.3, glucose 20, pH 7.4; osmolarity, 305–315 mOsm. […] Dose–response curves were created by fitting data to Hill equation: I = Imax/[1 + (EC50/[A])^n], where I is the current, Imax is the maximum current, [A] is a given concentration of agonist, n is the Hill coefficient. […] All experiments were performed at room temperature.

α1^E137G β2 γ2 GABAAR = molecular target: T3, α1^E137G β2 γ2 GABAAR (Rattus norvegicus, UniProt P62813+P63138, E164G); test: Patch clamp, HEK293, mutant GABAAR; conditions: Glu 1 mM; GABA 1 µM; normalized to wild-type α1β2γ2
T3 construct: expressed in transfected cells; host or cells: HEK293
T3 sequence (P62813 28-455 E164G): as the sequence (P62813 28-455) above, with E137G counted along it
T3 sequence (P63138 26-474): as the sequence (P63138 26-474 E206G) above, with G181E counted along it
T3 sequence (P18508 39-466 partner): as the sequence (P18508 39-466 partner) above
Source text: as §1, §2, §3, §4, §5

α1^K104D β2 γ2 GABAAR = molecular target: T4, α1^K104D β2 γ2 GABAAR (Rattus norvegicus, UniProt P62813+P63138, K131D); test: Patch clamp, HEK293, mutant GABAAR; conditions: Glu 1 mM; GABA 1 µM; normalized to wild-type α1β2γ2
T4 construct: expressed in transfected cells; host or cells: HEK293
T4 sequence (P62813 28-455 K131D): as the sequence (P62813 28-455) above, with K104D counted along it
T4 sequence (P63138 26-474): as the sequence (P63138 26-474 E206G) above, with G181E counted along it
T4 sequence (P18508 39-466 partner): as the sequence (P18508 39-466 partner) above
Source text: as §1, §2, §3, §4, §5

α1^K155D β2 γ2 GABAAR = molecular target: T5, α1^K155D β2 γ2 GABAAR (Rattus norvegicus, UniProt P62813+P63138, K182D); test: Patch clamp, HEK293, mutant GABAAR; conditions: Glu 1 mM; GABA 1 µM; normalized to wild-type α1β2γ2
T5 construct: expressed in transfected cells; host or cells: HEK293
T5 sequence (P62813 28-455 K182D): as the sequence (P62813 28-455) above, with K155D counted along it
T5 sequence (P63138 26-474): as the sequence (P63138 26-474 E206G) above, with G181E counted along it
T5 sequence (P18508 39-466 partner): as the sequence (P18508 39-466 partner) above
Source text: as §1, §2, §3, §4, §5

α2E137Gβγ GABAAR = molecular target: T6, α2E137Gβγ GABAAR (Rattus norvegicus, UniProt P23576+P63138, E165G); test: Patch clamp, HEK293, mutant GABAAR; conditions: HEK293, read-out: Glutamate potentiation of GABA currents, % of control, normalized to respective wild-type receptor
T6 construct: expressed in transfected cells; host or cells: HEK293
T6 sequence (P23576 29-451 E165G): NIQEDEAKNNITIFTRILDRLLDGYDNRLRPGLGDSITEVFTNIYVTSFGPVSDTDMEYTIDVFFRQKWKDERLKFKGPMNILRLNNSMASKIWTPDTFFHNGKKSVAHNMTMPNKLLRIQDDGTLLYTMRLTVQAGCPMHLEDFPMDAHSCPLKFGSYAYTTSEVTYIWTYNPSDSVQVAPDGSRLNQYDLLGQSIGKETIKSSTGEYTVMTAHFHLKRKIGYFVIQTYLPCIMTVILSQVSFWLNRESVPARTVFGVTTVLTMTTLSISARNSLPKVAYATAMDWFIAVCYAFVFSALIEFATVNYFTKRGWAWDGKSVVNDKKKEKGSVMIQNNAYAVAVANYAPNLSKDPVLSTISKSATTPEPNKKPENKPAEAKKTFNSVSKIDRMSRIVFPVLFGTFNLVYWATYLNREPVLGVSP
T6 sequence (P63138 26-474): as the sequence (P63138 26-474 E206G) above, with G181E counted along it
T6 sequence (P18508 39-466 partner): as the sequence (P18508 39-466 partner) above
Experimental: (§6) Fig. 4 Property characterization of glutamate binding sites in HEK cells expressing wild-type or mutated αβγ GABAARs. a, b The effects of electrostatic charge and/or size of the pocket-forming residues on glutamate-induced functional modulation.
as §3, §4, §5

α2K104Dβγ GABAAR = molecular target: T7, α2K104Dβγ GABAAR (Rattus norvegicus, UniProt P23576+P63138, K132D); test: Patch clamp, HEK293, mutant GABAAR; conditions: HEK293, read-out: Glutamate potentiation of GABA currents, % of control, normalized to respective wild-type receptor
T7 construct: expressed in transfected cells; host or cells: HEK293
T7 sequence (P23576 29-451 K132D): as the sequence (P23576 29-451 E165G) above, with K104D, G137E counted along it
T7 sequence (P63138 26-474): as the sequence (P63138 26-474 E206G) above, with G181E counted along it
T7 sequence (P18508 39-466 partner): as the sequence (P18508 39-466 partner) above
Experimental: as §6, §3, §4, §5

α2K155Dβγ GABAAR = molecular target: T8, α2K155Dβγ GABAAR (Rattus norvegicus, UniProt P23576+P63138, K183D); test: Patch clamp, HEK293, mutant GABAAR; conditions: HEK293, read-out: Glutamate potentiation of GABA currents, % of control, normalized to respective wild-type receptor
T8 construct: expressed in transfected cells; host or cells: HEK293
T8 sequence (P23576 29-451 K183D): as the sequence (P23576 29-451 E165G) above, with G137E, K155D counted along it
T8 sequence (P63138 26-474): as the sequence (P63138 26-474 E206G) above, with G181E counted along it
T8 sequence (P18508 39-466 partner): as the sequence (P18508 39-466 partner) above
Experimental: as §6, §3, §4, §5

αβ1E182Gγ GABAAR = molecular target: T9, αβ1E182Gγ GABAAR (Rattus norvegicus, UniProt P15431+P62813, E207G); test: Patch clamp, HEK293, mutant GABAAR; conditions: HEK293, read-out: Glutamate potentiation of GABA currents, % of control, normalized to respective wild-type receptor
T9 construct: expressed in transfected cells; host or cells: HEK293
T9 sequence (P62813 28-455): as the sequence (P62813 28-455) above
T9 sequence (P15431 26-474 E207G): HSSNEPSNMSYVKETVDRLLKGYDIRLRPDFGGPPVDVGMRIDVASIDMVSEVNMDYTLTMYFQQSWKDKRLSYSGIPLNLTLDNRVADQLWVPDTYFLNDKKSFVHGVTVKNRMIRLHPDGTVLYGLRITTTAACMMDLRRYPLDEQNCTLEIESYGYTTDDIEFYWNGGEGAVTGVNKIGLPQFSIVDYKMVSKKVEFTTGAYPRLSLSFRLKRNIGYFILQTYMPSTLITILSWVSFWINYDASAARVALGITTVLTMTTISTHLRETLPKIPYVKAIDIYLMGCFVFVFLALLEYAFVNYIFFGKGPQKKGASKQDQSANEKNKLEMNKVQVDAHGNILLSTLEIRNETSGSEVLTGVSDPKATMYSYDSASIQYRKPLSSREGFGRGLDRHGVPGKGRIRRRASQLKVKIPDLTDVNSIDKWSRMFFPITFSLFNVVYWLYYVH
T9 sequence (P18508 39-466 partner): as the sequence (P18508 39-466 partner) above
Experimental: as §6, §3, §4, §5

αβ3E182Gγ GABAAR = molecular target: T10, αβ3E182Gγ GABAAR (Rattus norvegicus, UniProt P62813+P63079, E207G); test: Patch clamp, HEK293, mutant GABAAR; conditions: HEK293, read-out: Glutamate potentiation of GABA currents, % of control, normalized to respective wild-type receptor
T10 construct: expressed in transfected cells; host or cells: HEK293
T10 sequence (P62813 28-455): as the sequence (P62813 28-455) above
T10 sequence (P63079 26-473 E207G): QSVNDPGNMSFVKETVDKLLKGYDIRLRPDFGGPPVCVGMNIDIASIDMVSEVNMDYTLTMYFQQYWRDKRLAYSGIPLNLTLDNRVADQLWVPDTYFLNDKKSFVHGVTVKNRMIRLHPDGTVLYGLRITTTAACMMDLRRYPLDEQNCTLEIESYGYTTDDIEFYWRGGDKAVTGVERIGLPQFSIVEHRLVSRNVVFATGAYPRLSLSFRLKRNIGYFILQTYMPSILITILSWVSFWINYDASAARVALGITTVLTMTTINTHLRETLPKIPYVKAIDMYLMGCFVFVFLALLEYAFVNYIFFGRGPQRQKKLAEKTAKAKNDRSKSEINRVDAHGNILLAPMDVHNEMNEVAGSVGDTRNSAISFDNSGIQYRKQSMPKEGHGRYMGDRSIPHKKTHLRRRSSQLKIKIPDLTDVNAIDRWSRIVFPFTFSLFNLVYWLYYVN
T10 sequence (P18508 39-466 partner): as the sequence (P18508 39-466 partner) above
Experimental: as §6, §3, §4, §5

For `N[C@@H](CCC(=O)O)C(=O)O` [glutamate, Glutamate], the “eIPSCs relative to baseline” value [1] was 114.2 ± 9.9%, the “Relative potentiation, % of control” value (α1 β2^E181G γ2 GABAAR; Glu 1 mM, GABA 1 µM) was 1.8 ± 9.6% and the Relative potentiation (α1 β2^E181G γ2 GABAAR) was 1.6 ± 11.6%. For the same compound, the Relative potentiation (α1 β2^E181G γ2 GABAAR; listed as Glu) was 1.6 ± 11.6%, the “Relative potentiation, % of control” value (α1^E137G β2 γ2 GABAAR) was 26.9 ± 6.4% and the “Relative potentiation, % of control” value (α1^K104D β2 γ2 GABAAR) was 18.6 ± 6.3%. For the same compound, the “Relative potentiation, % of control” value (α1^K155D β2 γ2 GABAAR) was 19.8 ± 11.7%, the activity at 100 µM (α2E137Gβγ GABAAR; Glu 100 μM) was 0.3 ± 3.4% and the activity at 1000 µM (α2E137Gβγ GABAAR; Glu 1 mM) was 5.7 ± 6.2%. The activity at 100 µM (α2K104Dβγ GABAAR; Glu 100 μM) was 2.7 ± 3.1%, the activity at 1000 µM (α2K104Dβγ GABAAR; Glu 1 mM) was 15.1 ± 4.4% and the activity at 100 µM (α2K155Dβγ GABAAR; Glu 100 μM) was 6.3 ± 6.9%. It also gave an activity at 1000 µM (α2K155Dβγ GABAAR; Glu 1 mM) of 5.3 ± 2.1%, an activity at 100 µM (αβ1E182Gγ GABAAR; Glu 100 μM) of 2.4 ± 2% and an activity at 1000 µM (αβ1E182Gγ GABAAR; Glu 1 mM) of 7.6 ± 1%. For the same compound, the activity at 100 µM (αβ3E182Gγ GABAAR; Glu 100 μM) was 2.3 ± 5% and the activity at 1000 µM (αβ3E182Gγ GABAAR; Glu 1 mM) was 2.4 ± 7.9%.
